This is an account of results in ChEMBL document CHEMBL1909046, “DrugMatrix in vitro pharmacology data”.

One may read the IC50 as the concentration at which inhibition is half-maximal. In general, Ki refers to a measure of affinity in units of concentration, obtained from inhibition or displacement.

Series [1] addresses T1, Type-2 angiotensin II receptor (Homo sapiens, UniProt P50052).
T1 sequence (P50052 whole entry): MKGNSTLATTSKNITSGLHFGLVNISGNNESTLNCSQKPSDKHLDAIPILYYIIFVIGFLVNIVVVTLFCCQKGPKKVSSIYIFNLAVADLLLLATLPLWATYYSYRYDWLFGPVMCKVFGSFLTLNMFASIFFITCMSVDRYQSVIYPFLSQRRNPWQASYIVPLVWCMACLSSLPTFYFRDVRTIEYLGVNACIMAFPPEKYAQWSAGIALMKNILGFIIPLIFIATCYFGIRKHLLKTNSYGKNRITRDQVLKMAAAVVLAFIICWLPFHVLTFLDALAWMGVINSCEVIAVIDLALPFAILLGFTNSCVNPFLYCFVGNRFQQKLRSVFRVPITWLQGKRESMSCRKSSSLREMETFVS
The class given is cell-based. The following applies: cho-k1.

Another series concerns the target T2, Leukotriene C4 synthase (Cavia porcellus, UniProt A6XA80).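 Note: enzyme inhibition assay of leukotriene C4 synthase, using LTA4 as the substrate; in other assays of this panel Not Active means under 50% inhibition at 10 µM.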
T2 sequence (A6XA80 whole entry): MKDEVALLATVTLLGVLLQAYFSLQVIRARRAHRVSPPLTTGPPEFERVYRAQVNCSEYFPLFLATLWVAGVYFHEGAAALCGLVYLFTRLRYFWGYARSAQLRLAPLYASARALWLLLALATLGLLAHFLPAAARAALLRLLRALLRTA
Kind of series: biochemical. The class given is tissue-based, Lung.

The target of series [2] is T3, Receptor-type tyrosine-protein phosphatase C (Homo sapiens, UniProt P08575).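 Note: inhibition of CD45 enzyme activity measured using DiFMUP as substrate; in other assays of this panel Not Active means under 50% inhibition at 10 µM.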
T3 sequence (P08575 whole entry): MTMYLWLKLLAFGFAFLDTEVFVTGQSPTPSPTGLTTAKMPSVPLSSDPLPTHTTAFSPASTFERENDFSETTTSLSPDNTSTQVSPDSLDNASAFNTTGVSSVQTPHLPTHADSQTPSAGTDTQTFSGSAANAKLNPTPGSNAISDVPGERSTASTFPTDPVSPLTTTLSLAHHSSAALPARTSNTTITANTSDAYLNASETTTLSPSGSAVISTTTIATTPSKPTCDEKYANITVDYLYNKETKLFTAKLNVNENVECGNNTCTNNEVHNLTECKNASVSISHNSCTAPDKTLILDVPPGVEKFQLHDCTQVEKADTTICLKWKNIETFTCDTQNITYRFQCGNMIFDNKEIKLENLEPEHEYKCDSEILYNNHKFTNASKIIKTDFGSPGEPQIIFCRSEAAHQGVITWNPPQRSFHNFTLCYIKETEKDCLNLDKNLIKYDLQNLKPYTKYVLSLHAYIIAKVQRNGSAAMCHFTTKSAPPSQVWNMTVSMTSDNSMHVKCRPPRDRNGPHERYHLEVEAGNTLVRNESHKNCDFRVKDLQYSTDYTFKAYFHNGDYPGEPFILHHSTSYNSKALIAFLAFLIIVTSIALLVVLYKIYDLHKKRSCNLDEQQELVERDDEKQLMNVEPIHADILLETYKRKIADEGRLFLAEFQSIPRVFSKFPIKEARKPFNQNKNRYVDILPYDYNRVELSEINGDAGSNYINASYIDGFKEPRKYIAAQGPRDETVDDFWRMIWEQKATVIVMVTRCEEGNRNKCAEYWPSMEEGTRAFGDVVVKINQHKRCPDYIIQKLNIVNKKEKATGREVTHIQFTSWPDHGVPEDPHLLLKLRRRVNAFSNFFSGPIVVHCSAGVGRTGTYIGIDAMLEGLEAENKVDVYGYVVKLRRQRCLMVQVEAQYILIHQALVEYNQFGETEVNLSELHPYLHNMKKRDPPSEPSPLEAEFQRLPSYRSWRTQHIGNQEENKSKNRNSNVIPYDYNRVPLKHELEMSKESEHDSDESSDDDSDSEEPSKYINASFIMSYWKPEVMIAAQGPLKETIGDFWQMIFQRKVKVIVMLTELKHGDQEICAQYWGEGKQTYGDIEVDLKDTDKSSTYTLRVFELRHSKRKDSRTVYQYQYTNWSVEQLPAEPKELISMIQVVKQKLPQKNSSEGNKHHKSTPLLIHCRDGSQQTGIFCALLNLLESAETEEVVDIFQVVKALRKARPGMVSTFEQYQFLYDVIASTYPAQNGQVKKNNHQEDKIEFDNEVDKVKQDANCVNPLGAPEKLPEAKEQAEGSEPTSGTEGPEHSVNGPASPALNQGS
The arrangement: species or system Escherichia coli.

In the next series the target is T4, Cytochrome P450 2A6 (Homo sapiens, UniProt P11509). Note: in other assays of this panel Not Active means under 50% inhibition at 10 µM.
T4 sequence (P11509 whole entry): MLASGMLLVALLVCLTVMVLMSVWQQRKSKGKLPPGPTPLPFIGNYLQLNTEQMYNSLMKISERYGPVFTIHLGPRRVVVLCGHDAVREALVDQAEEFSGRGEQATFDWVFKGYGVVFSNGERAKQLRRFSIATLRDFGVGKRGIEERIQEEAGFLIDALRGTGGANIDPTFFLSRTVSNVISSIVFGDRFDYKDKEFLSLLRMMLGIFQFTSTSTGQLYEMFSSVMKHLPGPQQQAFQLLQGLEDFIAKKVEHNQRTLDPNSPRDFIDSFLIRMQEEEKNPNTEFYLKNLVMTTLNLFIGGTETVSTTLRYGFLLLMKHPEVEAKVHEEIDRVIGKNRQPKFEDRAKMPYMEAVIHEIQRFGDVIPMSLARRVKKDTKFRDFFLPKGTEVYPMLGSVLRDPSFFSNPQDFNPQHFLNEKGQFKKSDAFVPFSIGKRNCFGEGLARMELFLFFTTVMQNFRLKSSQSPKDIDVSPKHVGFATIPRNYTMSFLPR
The following applies: bti-tn-5b1-4.

The target in series [3] is 5-hydroxytryptamine receptor 2B (Homo sapiens, UniProt P41595). The series is classed as cell membranes, CHO-K1, Membrane. The note with it: for Ki: read-out: Ki. For all read-outs here: in other assays of this panel Not Active means under 50% inhibition at 10 µM.
Another series deals with Substance-P receptor (Homo sapiens, UniProt P25103). The series is classed as cell membranes, CHO, Membrane.
The target in the next series is Histamine H2 receptor (Homo sapiens, UniProt P25021). The class given is cell membranes, CHO-K1, Membrane. The following applies: for Ki: read-out: Ki.
The nature of series [4]: DRUGMATRIX: Glutamate, NMDA, Agonism radioligand binding (ligand: [3H] CGP-39653). The series is classed as cell membranes, Rattus norvegicus, Wistar, Cerebral cortex, Membrane. The following applies: Not Active = under 50% inhibition at 10 µM.
Series [5] can be described thus: DRUGMATRIX: Interleukin IL-1 radioligand binding (ligand: [125I] interleukin 1beta). The following applies: nih3t3; Not Active = under 50% inhibition at 10 µM. The series is classed as cell membranes, Membrane.
A short description of series [6]: DRUGMATRIX: Phosphodiesterase PDE3 enzyme inhibition (substrate: [3H]cAMP + cAMP). The class given is tissue-based, Homo sapiens. The note with it: platelet; Not Active = under 50% inhibition at 10 µM.
Series [7] in a line: DRUGMATRIX: Purinergic P2X radioligand binding (ligand: [3H] alpha, beta-Methylene-ATP). The class given is cell membranes, Oryctolagus cuniculus, New Zealand albino, Urinary bladder, Membrane. The following applies: Not Active = under 50% inhibition at 10 µM.

Chain of Histamine H2 receptor (P25021 whole entry): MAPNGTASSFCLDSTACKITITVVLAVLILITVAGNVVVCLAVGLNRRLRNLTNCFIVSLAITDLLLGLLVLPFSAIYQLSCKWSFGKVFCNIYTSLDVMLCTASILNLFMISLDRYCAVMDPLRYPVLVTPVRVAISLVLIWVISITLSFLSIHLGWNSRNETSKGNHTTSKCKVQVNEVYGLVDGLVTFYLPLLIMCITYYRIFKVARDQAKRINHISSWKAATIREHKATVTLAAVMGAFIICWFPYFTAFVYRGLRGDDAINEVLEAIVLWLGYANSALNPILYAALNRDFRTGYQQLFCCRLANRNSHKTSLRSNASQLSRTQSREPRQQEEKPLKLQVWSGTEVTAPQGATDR
Chain of Substance-P receptor (P25103 whole entry): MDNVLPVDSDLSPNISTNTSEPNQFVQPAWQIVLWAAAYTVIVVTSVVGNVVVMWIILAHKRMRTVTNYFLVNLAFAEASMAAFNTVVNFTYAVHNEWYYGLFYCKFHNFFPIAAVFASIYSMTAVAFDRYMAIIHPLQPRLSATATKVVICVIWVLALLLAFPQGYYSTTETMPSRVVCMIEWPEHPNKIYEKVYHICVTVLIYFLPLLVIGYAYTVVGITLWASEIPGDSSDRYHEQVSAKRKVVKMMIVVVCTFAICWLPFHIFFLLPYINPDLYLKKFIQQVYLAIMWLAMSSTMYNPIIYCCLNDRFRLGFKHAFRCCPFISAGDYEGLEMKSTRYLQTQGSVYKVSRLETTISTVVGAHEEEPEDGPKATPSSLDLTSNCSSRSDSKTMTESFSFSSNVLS
Chain of 5-hydroxytryptamine receptor 2B (P41595 whole entry): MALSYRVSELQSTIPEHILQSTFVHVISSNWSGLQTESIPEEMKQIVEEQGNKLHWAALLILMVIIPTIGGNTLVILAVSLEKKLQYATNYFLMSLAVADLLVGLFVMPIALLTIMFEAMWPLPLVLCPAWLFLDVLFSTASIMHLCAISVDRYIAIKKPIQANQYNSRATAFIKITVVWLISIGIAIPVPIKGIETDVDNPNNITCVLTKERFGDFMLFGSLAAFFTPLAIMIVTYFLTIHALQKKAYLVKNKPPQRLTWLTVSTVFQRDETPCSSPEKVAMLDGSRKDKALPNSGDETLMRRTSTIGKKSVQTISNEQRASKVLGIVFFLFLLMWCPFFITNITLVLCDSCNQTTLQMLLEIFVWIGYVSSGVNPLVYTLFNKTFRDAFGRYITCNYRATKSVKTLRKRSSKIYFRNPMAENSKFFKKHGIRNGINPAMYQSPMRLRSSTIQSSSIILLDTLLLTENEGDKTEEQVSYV

For `COc1ccc(CCN2CCC(Nc3nc4ccccc4n3Cc3ccc(F)cc3)CC2)cc1` [ASTEMIZOLE], the IC50 result (in series [1]; on Leukotriene C4 synthase; in series [2]; against Cytochrome P450 2A6) was “Not Active” throughout. Further, at Cytochrome P450 2A6, the inhibition constant Ki result is “Not Active”.

With `CN(C)CCCN1c2ccccc2CCc2ccc(Cl)cc21` [CLOMIPRAMINE], the IC50 result in series [1] was “Not Active”; in [3] (read-out: IC50), 0.239 µM; on Substance-P receptor (cho), “Not Active”; on Histamine H2 receptor (read-out: IC50), 2.05 µM; against Leukotriene C4 synthase it was “Not Active”; in [2], “Not Active”. Besides, the IC50 result on Cytochrome P450 2A6 is “Not Active”. Also, the Ki is 0.152 µM in series [3], 2.02 µM at Histamine H2 receptor and “Not Active” on Cytochrome P450 2A6.

Consider `Clc1ccccc1C(c1ccccc1)(c1ccccc1)n1ccnc1` [CLOTRIMAZOLE], for which the IC50 entry in series [1] is “Not Active”; in series [3] (read-out: IC50), 11.6 µM; on Substance-P receptor (read-out: IC50) it was 16 µM; at Histamine H2 receptor (read-out: IC50), 5.17 µM; against Leukotriene C4 synthase, “Not Active”; in series [2], “Not Active”. At Cytochrome P450 2A6, the IC50 entry is given as “Not Active”. The Ki in [3] was 7.38 µM; at Substance-P receptor (read-out: Ki), 8.75 µM; at Histamine H2 receptor it was 5.08 µM; at Cytochrome P450 2A6, “Not Active”.

Regarding `O=C(CCCN1CCC(O)(c2ccc(Cl)cc2)CC1)c1ccc(F)cc1` [HALOPERIDOL], the IC50 result (in series [1]; at Substance-P receptor (cho); against Leukotriene C4 synthase; in series [2]; against Cytochrome P450 2A6) was “Not Active” in each case. The Ki entry at Cytochrome P450 2A6 was “Not Active”.

Regarding `CN1CCN2c3ccccc3Cc3ccccc3C2C1` (stereo not given) [MIANSERIN], the IC50 result (in series [1]; on Substance-P receptor (cho); at Leukotriene C4 synthase; in series [2]; against Cytochrome P450 2A6) was “Not Active” in each case. At Cytochrome P450 2A6, the Ki entry is recorded as “Not Active”.

Take `O=C1c2c(O)ccc(O)c2C(=O)c2c(NCCNCCO)ccc(NCCNCCO)c21` [MITOXANTRONE]: the IC50 result (in series [1]; in series [3] (cho-k1); on Substance-P receptor (cho); in series [4]; at Histamine H2 receptor (cho-k1); in series [5]) was “Not Active” in each case. The IC50 entry (at Leukotriene C4 synthase; in series [6]; in [2]; in [7]) was “Not Active” in each case. Also, the Ki entry in series [4], in series [5], in series [6] and in series [7] was “Not Active” in each case.

As to `CC(C)(O)c1ccccc1CC[C@@H](SCC1(CC(=O)O)CC1)c1cccc(/C=C/c2ccc3ccc(Cl)cc3n2)c1` [MONTELUKAST], the IC50 result (in series [1]; against Substance-P receptor (cho); against Histamine H2 receptor (cho-k1); against Leukotriene C4 synthase; in [2]; at Cytochrome P450 2A6) was “Not Active” in each case. In addition, the Ki entry at Cytochrome P450 2A6 is recorded as “Not Active”.

With `COC(=O)C1=C(C)NC(C)=C(C(=O)OC)C1c1ccccc1[N+](=O)[O-]` [NIFEDIPINE], the IC50 entry (in series [1]; in series [3] (cho-k1); against Substance-P receptor (cho); in series [4]; on Histamine H2 receptor (cho-k1); in series [5]) was “Not Active” in each case. The IC50 entry (on Leukotriene C4 synthase; in series [6]; in series [2]; in series [7]) was “Not Active” each time. For the same compound, the Ki result in series [4], in series [5], in series [6] and in series [7] was “Not Active” in each case.

For `CSc1ccc2c(c1)N(CCC1CCCCN1C)c1ccccc1S2` (stereo not given) [THIORIDAZINE], the IC50 result (in series [1]; at Substance-P receptor (cho); against Leukotriene C4 synthase; in series [2]; against Cytochrome P450 2A6) was “Not Active” throughout. Further, the Ki entry on Cytochrome P450 2A6 was “Not Active”.

Regarding `COc1cccc(C2(O)CCCCC2CN(C)C)c1` (stereo not given) [TRAMADOL], the IC50 entry (in series [1]; in [3] (cho-k1); at Substance-P receptor (cho); against Histamine H2 receptor (cho-k1); against Leukotriene C4 synthase; in [2]) was “Not Active” in each case. At Cytochrome P450 2A6, the IC50 entry is recorded as “Not Active”. In addition, the Ki result on Cytochrome P450 2A6 is listed as “Not Active”.

Turning to `COC(=O)[C@@H]1[C@H]2C[C@H]3c4[nH]c5ccccc5c4CCN3C[C@@H]2CC[C@@H]1O` [YOHIMBINE], the IC50 entry (in series [1]; at Substance-P receptor (cho); in series [4]; against Histamine H2 receptor (cho-k1); in [5]; against Leukotriene C4 synthase) was “Not Active” in each case. Moreover, the IC50 entry in series [6], in [2] and in series [7] was “Not Active” in each case. The Ki entry in series [4], in series [5], in series [6] and in [7] was “Not Active” in each case.
